Test results from article PMC11299587 (ACS infectious diseases, 2024).
Like-named read-outs stand apart in the source and are kept apart here.

Experiments:
[1] = target: T1, HscPheRS (human cytosolic phenylalanyl-tRNA synthetase, alpha subunit) (Homo sapiens, UniProt Q9Y285); assay: malachite green aminoacylation assay with purified enzyme; type: biochemical; settings: read-out: BRD7929
T1 sequence (Q9Y285 2-508): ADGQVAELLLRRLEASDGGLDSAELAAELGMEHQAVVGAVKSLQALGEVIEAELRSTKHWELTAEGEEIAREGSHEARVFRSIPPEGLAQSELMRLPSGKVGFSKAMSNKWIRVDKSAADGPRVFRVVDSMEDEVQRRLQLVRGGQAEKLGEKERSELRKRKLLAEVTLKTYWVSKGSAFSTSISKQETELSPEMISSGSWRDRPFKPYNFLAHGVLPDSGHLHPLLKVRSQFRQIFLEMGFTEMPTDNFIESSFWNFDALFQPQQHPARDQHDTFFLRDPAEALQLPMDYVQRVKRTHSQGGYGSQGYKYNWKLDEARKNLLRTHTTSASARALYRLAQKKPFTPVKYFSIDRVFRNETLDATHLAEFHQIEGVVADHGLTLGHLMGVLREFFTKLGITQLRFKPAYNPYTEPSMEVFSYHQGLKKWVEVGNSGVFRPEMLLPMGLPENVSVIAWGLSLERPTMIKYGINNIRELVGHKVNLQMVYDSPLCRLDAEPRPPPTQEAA
T1 sequence (Q9NSD9 1-589 partner): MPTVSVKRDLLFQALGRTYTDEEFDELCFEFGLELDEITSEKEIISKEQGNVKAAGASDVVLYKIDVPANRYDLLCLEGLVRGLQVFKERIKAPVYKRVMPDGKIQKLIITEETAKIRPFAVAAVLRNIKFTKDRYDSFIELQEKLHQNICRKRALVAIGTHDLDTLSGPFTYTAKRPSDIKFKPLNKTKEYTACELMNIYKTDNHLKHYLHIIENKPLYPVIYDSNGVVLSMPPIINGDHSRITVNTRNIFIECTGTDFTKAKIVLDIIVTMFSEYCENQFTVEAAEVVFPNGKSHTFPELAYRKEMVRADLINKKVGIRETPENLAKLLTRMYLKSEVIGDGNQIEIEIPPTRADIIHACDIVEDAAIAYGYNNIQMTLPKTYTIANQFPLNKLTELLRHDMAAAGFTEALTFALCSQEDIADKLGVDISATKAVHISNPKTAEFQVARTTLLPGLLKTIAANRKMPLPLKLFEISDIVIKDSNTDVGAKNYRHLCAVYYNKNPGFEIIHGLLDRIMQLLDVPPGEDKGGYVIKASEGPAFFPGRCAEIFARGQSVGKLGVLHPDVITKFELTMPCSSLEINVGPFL

[2] = target: T2, TgcPheRS (Toxoplasma gondii cytosolic phenylalanyl-tRNA synthetase, alpha subunit) (Toxoplasma gondii, UniProt A0A125YPN6+S8EZ50); assay: thermal shift assay; type: binding
T2 sequence (A0A125YPN6 1-525): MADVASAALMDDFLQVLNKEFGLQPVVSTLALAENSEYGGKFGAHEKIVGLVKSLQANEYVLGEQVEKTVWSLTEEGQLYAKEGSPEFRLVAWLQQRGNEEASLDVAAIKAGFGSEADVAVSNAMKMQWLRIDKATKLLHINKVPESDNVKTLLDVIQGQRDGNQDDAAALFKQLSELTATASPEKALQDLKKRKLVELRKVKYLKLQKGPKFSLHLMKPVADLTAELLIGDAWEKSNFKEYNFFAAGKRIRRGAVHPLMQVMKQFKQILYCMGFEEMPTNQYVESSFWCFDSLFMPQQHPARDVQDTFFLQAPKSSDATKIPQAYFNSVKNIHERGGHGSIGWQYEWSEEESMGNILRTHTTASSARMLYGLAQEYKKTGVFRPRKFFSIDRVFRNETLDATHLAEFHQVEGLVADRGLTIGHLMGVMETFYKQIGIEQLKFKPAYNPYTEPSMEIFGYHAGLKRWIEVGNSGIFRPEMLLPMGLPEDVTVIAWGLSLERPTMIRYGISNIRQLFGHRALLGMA
T2 sequence (S8EZ50 1-675): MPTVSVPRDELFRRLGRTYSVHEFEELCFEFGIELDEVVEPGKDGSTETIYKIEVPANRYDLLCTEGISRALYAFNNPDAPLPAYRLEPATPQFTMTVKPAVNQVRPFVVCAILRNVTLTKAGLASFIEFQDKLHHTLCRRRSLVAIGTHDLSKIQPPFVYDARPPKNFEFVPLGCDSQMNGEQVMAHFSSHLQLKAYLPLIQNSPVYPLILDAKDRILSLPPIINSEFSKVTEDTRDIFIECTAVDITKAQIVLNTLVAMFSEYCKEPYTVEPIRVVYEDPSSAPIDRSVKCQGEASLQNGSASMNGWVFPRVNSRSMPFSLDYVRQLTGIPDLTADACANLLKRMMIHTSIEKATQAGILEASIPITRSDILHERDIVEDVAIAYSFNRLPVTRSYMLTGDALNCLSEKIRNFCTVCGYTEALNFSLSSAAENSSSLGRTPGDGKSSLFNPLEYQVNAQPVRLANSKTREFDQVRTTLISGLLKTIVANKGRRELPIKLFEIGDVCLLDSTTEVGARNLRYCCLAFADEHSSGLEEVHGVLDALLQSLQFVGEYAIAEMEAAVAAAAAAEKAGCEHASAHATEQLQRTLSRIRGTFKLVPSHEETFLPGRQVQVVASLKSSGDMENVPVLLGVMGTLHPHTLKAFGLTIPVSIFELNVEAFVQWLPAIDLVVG

[3] = target: T1, HscPheRS (human cytosolic phenylalanyl-tRNA synthetase, alpha subunit); assay: malachite green aminoacylation assay with purified enzyme; type: biochemical
[4] = target: T2, TgcPheRS (Toxoplasma gondii cytosolic phenylalanyl-tRNA synthetase, alpha subunit); assay: as above; type: biochemical
[5] = target: T1, HscPheRS (human cytosolic phenylalanyl-tRNA synthetase, alpha subunit); assay: as above; type: biochemical; settings: read-out: BRD2108
[6] = target: T2, TgcPheRS (Toxoplasma gondii cytosolic phenylalanyl-tRNA synthetase, alpha subunit); assay: as above; type: biochemical; remark: listed apart in the source

## COc1ccc(NC(=O)N2CCCCN3[C@H](CN(C)C)[C@H](c4ccc(C#Cc5ccccc5)cc4)[C@@H]3C2)cc1 [BRD7929]
[1]
  IC50: 18 µM
[2]
  BRD7929: 11.6 °C

## COc1ccc(NC(=O)N2CCCN3CC[C@H](c4ccc(C#CC5=CCCCC5)cc4)[C@@H]3C2)cc1 [mCMY416]
[3]
  IC50: 3.58 µM
[4]
  IC50: 0.24 µM

## BRD2108
[5]
  IC50: 15.6 µM
[6]
  IC50: 0.42 µM
